Where a SMILES comes first, the peptide text is derived from it. Bridges are numbered along the chain shown (N, C = ends). Where no end group is shown, it is not given here.

The assay addresses T1, P-selectin (Homo sapiens, UniProt P16109).
T1 construct: from tissue; host or cells: outdated human platelet packs from a blood bank
T1 sequence (P16109 42-830): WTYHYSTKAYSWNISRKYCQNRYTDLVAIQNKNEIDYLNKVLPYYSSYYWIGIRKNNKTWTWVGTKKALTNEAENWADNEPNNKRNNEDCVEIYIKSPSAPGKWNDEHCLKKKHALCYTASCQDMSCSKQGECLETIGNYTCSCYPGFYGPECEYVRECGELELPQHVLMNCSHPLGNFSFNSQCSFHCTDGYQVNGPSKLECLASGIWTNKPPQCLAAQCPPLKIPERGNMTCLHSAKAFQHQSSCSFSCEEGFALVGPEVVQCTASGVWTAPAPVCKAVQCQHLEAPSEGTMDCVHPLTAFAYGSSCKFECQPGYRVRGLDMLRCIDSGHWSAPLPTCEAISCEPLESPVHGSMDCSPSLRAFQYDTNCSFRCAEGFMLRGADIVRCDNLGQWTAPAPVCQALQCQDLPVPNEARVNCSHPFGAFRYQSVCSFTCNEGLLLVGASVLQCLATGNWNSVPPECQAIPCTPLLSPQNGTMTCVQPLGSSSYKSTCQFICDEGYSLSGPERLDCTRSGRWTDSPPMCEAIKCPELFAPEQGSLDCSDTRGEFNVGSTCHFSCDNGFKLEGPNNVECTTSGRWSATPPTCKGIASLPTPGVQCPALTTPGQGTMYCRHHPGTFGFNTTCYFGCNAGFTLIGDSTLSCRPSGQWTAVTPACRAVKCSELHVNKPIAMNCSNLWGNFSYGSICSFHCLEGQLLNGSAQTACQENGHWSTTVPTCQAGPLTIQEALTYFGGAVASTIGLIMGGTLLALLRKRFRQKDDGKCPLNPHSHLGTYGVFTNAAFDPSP
In words: Inhibition of binding of human neutrophils to P-selectin (neutrophil adhesion to purified immobilized P-selectin, myeloperoxidase readout). It is filed as cell-based. The note with it: P-selectin purified from human platelets, plated at 5 micrograms/mL, peptides tested 1.0 mM to 0.001 mM. From the text: Peptides can be screened for their ability to inhibit adhesion to cells, for example, neutrophil adhesion to purified P-selectin immobilized on plastic wells, using the assay described by Geng, et al., Nature 343, 757-760 1990). Human neutrophils are isolated from heparinized […] blood by density gradient centrifugation on Mono-Poly resolving media, Flow Laboratories. Neutrophil suspensions are greater than 98% pure and greater than 95% viable by trypan blue exclusion. For adhesion assays, neutrophils are suspended at a concentration of 2×10^6 cells/mL in Hanks' balanced salt solution containing 1.26 mM Ca^2+ and 0.81 mM Mg^2+ (HBSS, Gibco) with […] human serum albumin (HBSS/HSA). Adhesion assays are conducted in triplicate in 96-well microtiter plates, Corning, incubated at 4° C. overnight with 50 microliters of various protein solutions. P-selectin is isolated from human platelet lysates by immunoaffinity chromatography on antibody S12-Sepharose™ and ion-exchange chromatography on a Mono-Q™ column (FLPC, Pharmacia Fine Chemicals), as follows. Outdated human platelet packs (100 units) obtained from a blood bank and stored at 4° C. are pooled, adjusted to 5 mM EDTA at pH 7.5, centrifuged at 4,000 rpm for 30 minutes in 1 liter bottles, then washed three times with 1 liter of 0.1M NaCl, 20 mM Tris pH 7.5 (TBS), 5 mM EDTA, 5 mM benzamidine. The pellets are then resuspended in a minimum amount of wash buffer and made 1 mM in DIFP, then frozen in 50 mL screwtop tubes at -80° C. The frozen platelets are thawed and resuspended in 50 mL TBS, 5 mM benzamidine, 5 mM EDTA pH 7.5, […]. The suspension is frozen and thawed two times in a dry ice-acetone bath using a 600 mL lyophilizing flask, then homogenized in a glass/teflon mortar and pestle and made 1 mM in DIFP. The NaCl concentration is adjusted to 0.5M with a stock solution of 4M NaCl. After stirring the suspension at 4° C., it is centrifuged in polycarbonate tubes at 33,000 rpm for 60 minutes at 4° C. The supernatant (0.5M NaCl wash) is removed and saved; this supernatant contains the soluble form of P-selectin. Care is taken not to remove the top part of the pellet with the supernatant. The pellets are then homogenized in extraction buffer (TBS, 5 mM benzamidine, 5 mM EDTA, pH 7.5, 100 μM leupeptin, 2% Triton X-100). After centrifugation at 19,500 rpm for 25 minutes at 4° C., the supernatant is removed. The extraction procedure is repeated with the pellet and the supernatant is combined with the first supernatant. The combined extracts, which contain the membrane form of P-selectin, are adjusted to 0.5M NaCl. The soluble fraction (0.5M NaCl wash) and the membrane extract (also adjusted to 0.5M NaCl) are absorbed with separate pools of the monoclonal antibody S12 (directed to P-selectin) previously coupled to Affigel (Biorad) at 5 mg/mL for 2 hours at 4° C. After letting the resins settle, the supernatants are removed. The S12 Affigel containing bound GMP-140 is then loaded into a column and washed overnight at 4° C. with 400 mL of 0.5M NaCl, 20 mM Tris pH 7.5, 0.01% Lubrol PX. Bound P-selectin is eluted from the S12 Affigel with 100 mL of 80% ethylene glycol, 1 mM MES pH 6.0, 0.01% Lubrol PX. Peak fractions with absorbance at 280 nm are pooled. Eluates are dialyzed against TBS with 0.05% Lubrol, then applied to a Mono Q column (FPLC from Pharmacia). The concentrated protein is step eluted with 2M NaCl, 20 mM Tris pH 7.5 (plus 0.05% Lubrol PX for the membrane fraction). Peak fractions are dialyzed into TBS pH 7.5 (plus 0.05% Lubrol PX for the membrane fraction). P-selectin is plated at 5 micrograms/mL and the control proteins: human serum albumin (Alb), platelet glycoprotein IIb/IIIa (IIb), von Willsbrand factor (vWF), fibrinogen (FIB), thrombomodulin (TM), gelatin (GEL) or human serum (HS), are added at 50 micrograms/mL. […]
“SKRKLALCY-NH2 [SEQ ID NO: 54, SKRKLALCY--NH2]” yielded an IC50 of 4 µM. This lies in the single-digit micromolar range. With “Ac-SKRKRALCY-NH2 [SEQ ID NO: 55, Ac-SKRKRALCY--NH2]” the figure was 26 µM; with “LKKKLALCY-NH2 [SEQ ID NO: 13, LKKKLALCY--NH2]”, 65 µM. With “Ac-SRKRLALCY-NH2 [SEQ ID NO: 65, Ac-SRKRLALCY--NH2]” the figure was 18 µM.

“SKSKLALCY-NH2 [SEQ ID NO: 60, SKSKLALCY--NH2]” yielded an IC50 of 858 µM. Compared with the last compound, the IC50 is about 48-fold higher. The compound “SKKKHALCY-NH2 [SEQ ID NO: 25, SKKKHALCY--NH2]” showed an IC50 of 656 µM.

“SKFKLALCY-NH2 [SEQ ID NO: 20, SKFKLALCY--NH2]”: the 50% inhibitory concentration (IC50) was found to be 37 µM. As for `CC(C)C[C@@H]1NC(=O)[C@H](C)NC(=O)[C@H](C)NC(=O)[C@H](CCCCN)NC(=O)[C@H](CC(C)C)NC(=O)[C@H](CCCCN)NC(=O)[C@H](Cc2c[nH]cn2)NC(=O)[C@@H](N)CSSC[C@@H](C(=O)N[C@@H](Cc2ccc(O)cc2)C(N)=O)NC1=O` [SEQ ID NO: 6, Cyclo-(cystinyl-histidyl-lysyl-leucyl-lysyl-alanyl-alanyl-leucyl-cystinyl)- tyrosine-amide] (H-CHKLKAALCY-NH2; disulfide 1-9), the IC50 came to 2 µM.

As to “SKKQLALCY-NH2 [SEQ ID NO: 48, SKKQLALCY--NH2]”, the 50% inhibitory concentration (IC50) worked out at 195 µM. With “SKKKLFLCY-NH2 [SEQ ID NO: 43, SKKKLFLCY--NH2]” the figure was 95 µM; with “SKKKIALCY-NH2 [SEQ ID NO: 26, SKKKIALCY--NH2]”, 62 µM; with “SKKKLALCY-NH2 [SEQ ID NO: 31, SKKKLALCY--NH2]”, 19 µM. “SKKKLALIV-NH2 [SEQ ID NO: 33, SKKKLALIV--NH2]”: the half-inhibitory concentration (IC50) was found to be 390 µM. As for “SKLKLALCY-NH2 [SEQ ID NO: 52, SKLKLALCY--NH2]”, the figure is 9 µM; as for “SKRKRALCY-NH2 [SEQ ID NO: 56, SKRKRALCY--NH2]”, 24 µM; as for “SSKKLALCY-NH2 [SEQ ID NO: 70, SSKKLALCY--NH2]”, 282 µM. As for “NKKKLALCY-NH2 [SEQ ID NO: 15, NKKKLALCY--NH2]”, the figure is 19 µM; as for “SKKKLAFCY-NH2 [SEQ ID NO: 27, SKKKLAFCY--NH2]”, 86 µM; as for “Ac-LKKKLALCY-NH2 [SEQ ID NO: 12, Ac-LKKKLALCY--NH2]”, 26 µM. As for “QKKKLALCY-NH2 [SEQ ID NO: 17, QKKKLALCY--NH2]”, the figure is 1010 µM; as for “SKKKLALCI-NH2 [SEQ ID NO: 30, SKKKLALCI--NH2]”, 867 µM. With `CC(C)C[C@H](NC(=O)[C@H](C)NC(=O)[C@H](C)NC(=O)[C@H](CCCCN)NC(=O)[C@H](CC(C)C)NC(=O)[C@H](CCCCN)NC(=O)[C@H](Cc1c[nH]cn1)NC(=O)[C@@H](N)CS)C(=O)N[C@@H](CS)C(=O)N[C@@H](Cc1ccc(O)cc1)C(N)=O` [SEQ ID NO: 3, Cystinyl-histidyl-lysyl-leucyl-lysyl-alanyl-alanyl-leucyl-cystinyl-tyrosine-amide] (H-CHKLKAALCY-NH2), the half-inhibitory concentration (IC50) was determined as 282 µM.

For the compound “SKKFLALCY-NH2 [SEQ ID NO: 22, SKKFLALCY--NH2]”, the IC50 stood at 554 µM. As for “SKKKLALFY-NH2 [SEQ ID NO: 32, SKKKLALFY--NH2]”, the figure is 15 µM; as for “SRRKLALCY-NH2 [SEQ ID NO: 69, SRRKLALCY--NH2]”, 14 µM.

What is called IC50 is the point on the concentration scale where inhibition reaches its midpoint. A high value points to weaker potency in that assay.

The values above are taken from patent publication US5710123A, “Peptide inhibitors of selectin binding” (Centocor, Inc., priority 1995, dated 1998).
